Like-named read-outs stand apart in the source and are kept apart here.
Tests used:
Format in all cases: cell-based
[1] = tested on: primary human hepatocyte (PHH); experiment: PHH natural infection assay, cytotoxicity (Cell Counting Kit-8); details: HBV-infected primary human hepatocytes, CCK8, end of treatment
How it was run: (§1)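 HBV-infected at 200 GE/cell with 4% PEG8000 for 24 h, then sandwich-cultured 72 h in 1% DMSO and 0.25 mg/mL matrix gel. Compound added twice at 72-h intervals; supernatant HBsAg and HBeAg read by AlphaLISA, HBV DNA by quantitative fluorescence PCR kit. Cytotoxicity by CCK-8.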

HBsAg = experiment: PHH HBV natural infection assay, HBsAg (alphalisa)
How it was run: (§2)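 Primary human hepatocytes infected with HBV at 200 GE/cell plus 4% PEG8000 for 24 h, then sandwich-cultured 72 h. Compounds were added in two refreshes 72 h apart. HBsAg and HBeAg in supernatant measured by AlphaLISA.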

[2] = PHH natural infection assay, cytotoxicity (Cell Counting Kit-8); details: human, HBV-infected primary human hepatocytes, CCK8, end of treatment
How it was run: as §1

HBeAg = experiment: PHH HBV natural infection assay, HBeAg (alphalisa)
How it was run: as §2

[3] = Hepatitis B virus, Hepatocyte, 72 h, read-out: HBsAg IC50, HBV-infected primary human hepatocytes, supernatant, compound medium refreshed two times with 72-hour interval
[4] = Hepatitis B virus, Hepatocyte, 72 h, read-out: HbeAg IC50, HBV-infected primary human hepatocytes, supernatant, compound medium refreshed two times with 72-hour interval
[5] = read-out: HBsAg IC50, HBV-infected primary human hepatocytes, supernatant, compound medium refreshed two times with 72-hour interval
[6] = read-out: HbeAg IC50, HBV-infected primary human hepatocytes, supernatant, compound medium refreshed two times with 72-hour interval

Structure (SMILES)	CC50 [1] [µM]	IC50 (HBsAg; [3]) [µM]	CC50 at 144 h [2] [µM]	IC50 (HBeAg; [4]) [µM]	IC50 (HBsAg; [5]) [µM]	IC50 (HBeAg; [6]) [µM]
N=S(=O)(c1ccc(C(=O)NC2CC3(C2)CC(c2nc4cc(Cl)cnc4o2)C3)o1)C1CC1 (single isomer, unassigned) [Example 64-d, N-[6-(6-chlorooxazolo[5,4-b]pyridin-2-yl)spiro[3.3]heptan-2-yl]-5-(cyclopropylsulfonimidoyl)furan-2-carboxamide]	> 10					
O=C(NC1CC2(C1)CC(c1nc3cc(Cl)ccc3o1)C2)c1ccc([S+]([O-])C(F)(F)F)o1 (stereo not shown) [Example 42, N-[6-(5-chloro-1,3-benzoxazol-2-yl)spiro[3.3]heptan-2-yl]-5-(trifluoromethylsulfinyl)furan-2-carboxamide]		1.52	96.2	1.41		
NS(=O)(=O)c1ccc(C(=O)NC2CC3(C2)CC(c2nc4cc(Cl)ccc4o2)C3)o1 (stereo not shown) [Example 29, N-[6-(5-chloro-1,3-benzoxazol-2-yl)spiro[3.3]heptan-2-yl]-5-sulfamoyl-furan-2-carboxamide]		0.534	94.2	0.509		
O=C(NC1CC2(C1)CC(c1nc3cc(Cl)ccc3o1)C2)c1ccc(S(=O)(=O)NC(=O)C2CS(=O)(=O)C2)o1 (stereo not shown) [Example 83, N-[6-(5-chloro-1,3-benzoxazol-2-yl)spiro[3.3]heptan-2-yl]-5-[(1,1-dioxothietane-3-carbonyl)sulfamoyl]furan-2-carboxamide]		3.3	> 10	1.97		
NS(=O)(=O)CCc1ccc(C(=O)NC2CC3(C2)CC(c2nc4cc(Cl)ccc4o2)C3)o1 (stereo not shown) [Example 34, N-[6-(5-chloro-1,3-benzoxazol-2-yl)spiro[3.3]heptan-2-yl]-5-(2-sulfamoylethyl)furan-2-carboxamide]		8.78	> 100	5.84		
NS(=O)(=O)Cc1ccc(C(=O)NC2CC3(C2)CC(c2nc4cc(Cl)ccc4o2)C3)o1 (stereo not shown) [Example 33, N-[6-(5-chloro-1,3-benzoxazol-2-yl)spiro[3.3]heptan-2-yl]-5-(sulfamoylmethyl)furan-2-carboxamide]		1.41	> 100	1.39		
N=S(=O)(CC1CC(F)(F)C1)c1ccc(C(=O)NC2CC3(C2)CC(c2nc4cc(Cl)ccc4o2)C3)o1 (stereo not shown) [Example 57, N-[6-(5-chloro-1,3-benzoxazol-2-yl)spiro[3.3]heptan-2-yl]-5-[(3,3-difluorocyclobutyl)methylsulfonimidoyl]furan-2-carboxamide]		0.884	81.9	0.754		
N=S(=O)(c1ccc(C(=O)NC2CC3(C2)CC(c2nc4cnc(Cl)cc4o2)C3)o1)C1CC1 (stereo not shown) [Example 65, N-[6-(6-chlorooxazolo[4,5-c]pyridin-2-yl)spiro[3.3]heptan-2-yl]-5-(cyclopropylsulfonimidoyl)furan-2-carboxamide]		6.38	> 100	5.83		
O=C(NC1CC2(C1)CC(c1nc3cc(Cl)cnc3o1)C2)c1ccc(S(=O)(=O)C2CC2)o1 (single isomer, unassigned) [Example 49-a, N-[6-(6-chlorooxazolo[5,4-b]pyridin-2-yl)spiro[3.3]heptan-2-yl]-5-cyclopropylsulfonyl-furan-2-carboxamide]			81.1		4.17	4.25
CC(C)C[S+]([O-])c1ccc(C(=O)NC2CC3(C2)CC(c2nc4cc(Cl)ccc4o2)C3)o1 (stereo not shown) [Example 21, N-[6-(5-chloro-1,3-benzoxazol-2-yl)spiro[3.3]heptan-2-yl]-5-isobutylsulfinyl-furan-2-carboxamide]		0.372	92.4	0.314		
COCCOCC(=O)NS(=O)(=O)c1ccc(C(=O)N[C@H]2CC3(C2)C[C@H](c2nc4cc(Cl)ccc4o2)C3)o1 (single isomer, unassigned) [Example 78, (Sa)—N-[6-(5-chloro-1,3-benzoxazol-2-yl)spiro[3.3]heptan-2-yl]-5-[[2-(2-methoxyethoxy)acetyl]sulfamoyl]furan-2-carboxamide, or (Ra)—N-[6-(5-chloro-1,3-benzoxazol-2-yl)spiro[3.3]heptan-2-yl]-5-[[2-(2-methoxyethoxy)acetyl]sulfamoyl]furan-2-carboxamide]		2.45	> 100	0.929		
CS(=N)(=O)c1ccc(C(=O)NC2CC3(C2)CC(c2nc4cc(Cl)ccc4o2)C3)o1 (stereo not shown) [Example 52, N-[6-(5-chloro-1,3-benzoxazol-2-yl)spiro[3.3]heptan-2-yl]-5-(methylsulfonimidoyl)furan-2-carboxamide]		1.7	72	1.2		
O=C(NC1CC2(C1)CC(c1nc3cc(Cl)ccc3o1)C2)c1ccc([S+]([O-])CC2CC2)o1 (single isomer, unassigned) [Example 19-a, N-[6-(5-chloro-1,3-benzoxazol-2-yl)spiro[3.3]heptan-2-yl]-5-(cyclopropylmethylsulfinyl)furan-2-carboxamide]			> 10		0.088	0.067
[H][C@]1(NC(=O)c2ccc(S(C)(=O)=O)o2)C[C@@]2(C1)C[C@]([H])(c1nc3cc(Cl)ccc3o1)C2 (single isomer, unassigned) [Example 15-a, (Sa)—N-[6-(5-chloro-1,3-benzoxazol-2-yl)spiro[3.3]heptan-2-yl]-5-methylsulfonyl-furan-2-carboxamide]			84		5.19	3.94
N=S(=O)(c1ccc(C(=O)NC2CC3(C2)CC(c2nc4cc(Cl)cnc4o2)C3)o1)C1CC1 (single isomer, unassigned) [Example 64-a, N-[6-(6-chlorooxazolo[5,4-b]pyridin-2-yl)spiro[3.3]heptan-2-yl]-5-(cyclopropylsulfonimidoyl)furan-2-carboxamide]			> 10		8.45	4.81
CS(=O)(=O)c1ccc(C(=O)NC2CC3(C2)CC(c2nc4cc(Cl)ccc4o2)C3)o1 (stereo not shown) [Example 15, N-[6-(5-chloro-1,3-benzoxazol-2-yl)spiro[3.3]heptan-2-yl]-5-methylsulfonyl-furan-2-carboxamide]		1.95	79	1.17		
CN1CC(CS(=O)(=O)c2ccc(C(=O)NC3CC4(C3)CC(c3nc5cc(Cl)ccc5o3)C4)o2)C1 (stereo not shown) [Example 25, N-[6-(5-chloro-1,3-benzoxazol-2-yl)spiro[3.3]heptan-2-yl]-5-[(1-methylazetidin-3-yl)methylsulfonyl]furan-2-carboxamide]		4.19	> 10	3.73		
O=C(NC1CC2(C1)CC(c1nc3cc(Cl)ccc3o1)C2)c1ccc(S(=O)(=O)CC2CCC2)o1 (stereo not shown) [Example 23, N-[6-(5-chloro-1,3-benzoxazol-2-yl)spiro[3.3]heptan-2-yl]-5-(cyclobutylmethylsulfonyl)furan-2-carboxamide]		0.321	> 100	0.883		
CC(C)(C)S(=O)(=O)c1ccc(C(=O)NC2CC3(C2)CC(c2nc4cc(Cl)ccc4o2)C3)o1 (stereo not shown) [Example 39, 5-tert-butylsulfonyl-N-[6-(5-chloro-1,3-benzoxazol-2-yl)spiro[3.3]heptan-2-yl]furan-2-carboxamide]		0.96	> 10	0.603		

— US20230286969A1, “AROMATIC SPIRO RING AMIDE DERIVATIVES FOR THE TREATMENT AND PROPHYLAXIS OF HEPATITIS B VIRUS INFECTION” (Hoffmann-La Roche Inc., priority 2020, published 2023)
